Measured values: patent publication US11739054B2 (priority 2017, dated 2023)

Legend:
Swiss Webster mice [1] = format: in vivo; settings: Example 4; hapten conjugated to TT, 75 μg with 50 μg CpG + 750 μg Alhydrogel/alum, s.c. days 0, 14, 28
Swiss Webster mice [2] = experiment: METH-induced locomotor activity assay in vaccinated mice; format: in vivo; settings: Example 4; vaccinated mice challenged with METH
Procedure: On day 42, vaccinated mice were assessed in a locomotion assay by acclimating them for 1 h in a plastic cage (10.5 in.×19 in.×8 in.) with clear ventilated acrylic top. Mice were then quickly removed and injected with saline or 0.5, 1, 2, or 4 mg/kg METH before being returned to their cages; cages were wiped down with dry paper towels to remove excess debris while mice were being injected. The mice were then returned to the cage to be recorded and tracked by overhead camera using ANY-Maze video tracking software (Stoelting Co., Wood Dale, Ill.). Sessions were run during the middle of the dark cycle in a 4.6×4.6 m^2 room with a single 30 W upward-directed light source, and then repeated on mice after a two-day washout period until all mice received all MA doses. Distance traveled (m) and time spent immobile (s; 80% pixel consistency for at least 5 s threshold) were measured and analyzed via Prism 6 software, using a two-way repeated-measures ANOVA with Bonferroni posthoc corrected comparisons. Significance was set at a=0.05 and data is represented as mean±SEM.
The mice were monitored for swelling, redness or formation of granulomas at the injection site. The mice were bled on days 21 and 42. The anti-METH IgG antibody titers were determined by ELISA. On day 45, mice were given a 2 mg/kg dose of METH and their locomotor activity was monitored.

Swiss Webster mice [3] = settings: mouse, in vivo, sc

Compound | anti-METH antibody titers (ELISA) (Swiss Webster mice [1]) | METH-induced locomotor activity (Swiss Webster mice [2]) | immune response (Swiss Webster mice [3])
CN[C@@H](CCC(=O)NCCCCCCC(=O)O)Cc1ccccc1 [I-66] | at least comparable to, and possibly greater than, the MH-6 hapten | worked as well as, and possibly better than, MH-6 | 
TT: tetanus toxoid scaffold protein |  |  | potent immune responses
